Experimental data reported in US20150231069A1, “ORAL FORMULATIONS OF CHEMOTHERAPEUTIC AGENTS” (priority 2014, published 2015).
Like-named read-outs stand apart in the source and are kept apart here.

Assays:
MCF-7 cells = assay: Cytotoxicity against MCF-7 cell growth; type: cell-based, human
Protocol: The cellular uptake of non-targeted and folic acid (FA)-targeted tumor has affinity for folic acid (breast, tumor, ovarian tumors) microbeads as prepared above was evaluated in human breast carcinoma cell, MCF-7. The microbeads are made specifically to be retained by the tumor sites and tumors have affinity toward the drug and conjugate. To investigate the effect of time on the FA-targeted microbead uptake by FR-bearing cells, […]. MCF-7 cells were incubated with free rhodamine B (free R-B), plain micellar rhodamine B (DOMC/R-B) and FA-micellar rhodamine B (DOMC-FA/R-B) for various periods and visualized using fluorescence microscopy. The cytotoxicity of paclitaxel (PTX) in plain micelles (DOMC/PTX) and FA-micellar PTX (DOMC-FA/PTX) was investigated and compared with that of the free PTX and taxol injection using MCF-7 cells. […] In order to elucidate PTX-loaded micelles induced-apoptosis in MCF-7 cells, Hoechst staining of nuclei was observed after different treatments.

[1] = Human clinical bioavailability study, oral versus i.v. paclitaxel; type: in vivo
Protocol: An open label, two-treatment, single dose, two-period, cross-over, […] Paclitaxel BMS formulation (175 mg) in 11 patients (male or female) suffering from solid tumors, cancers and malignancies refractory to standard therapy were treated under fasting condition.
In this part of the study, the oral course and IV course were randomized. […]
The IV formulation of paclitaxel ([…]; Rhône-Poulenc Rorer/Aventis, Antony, France) was used for both IV and oral administration of the agent. One hour before oral paclitaxel administration, patients received 1 mg of oral granisetron and oral CsA capsules (500 mg). Patients who completed the first course of oral paclitaxel were eligible to receive IV paclitaxel.
Pharmacokinetic monitoring was performed during course i.v. and oral paclitaxel administration. For plasma paclitaxel and metabolite concentrations, blood samples of 5 mL each were collected in heparinized tubes. After oral administration, blood samples were obtained before dosing, at time 0 min and then 15, 30, 45, 60, 75, 90 minutes, and 2, 3, 4, 7, 10, 24, 30, and 48 h after paclitaxel ingestion. […] After centrifugation, the plasma was transferred to a polypropylene storage tube and stored at −20° C. until analyzed. Paclitaxel and metabolite concentrations in plasma were determined using a validated high-performance liquid chromatography (HPLC) assay.

[2] = female, C57BL6, mouse, in vivo
[3] = female, FVB wild-type, mouse, in vivo

AUC ([1]; both sexes, plasma, 75 mg/m2, oral 75 mg/m^2, without delivery system, read-out: mean AUC of orally administered paclitaxel): 420 ± 140 ng·h/mL
oral bioavailability (ratio of AUC after oral and after i.v., dose corrected) ([1]; without delivery system): 4.3%±1.8
oral bioavailability (ratio of AUC after oral and after IV, dose corrected) [2]: 6%±1.6
oral bioavailability (ratio of AUC after oral and after i.v., dose corrected) [3]: 6%±1.6
SMILES: CC(=O)O[C@H]1C(=O)[C@@]2(C)[C@H]([C@H](OC(=O)c3ccccc3)[C@]3(O)C[C@H](OC(=O)[C@H](O)[C@@H](NC(=O)c4ccccc4)c4ccccc4)C(C)=C1C3(C)C)[C@]1(OC(C)=O)CO[C@@H]1C[C@@H]2O [paclitaxel]
growth of MCF-7 cells (MCF-7 cells): inhibited the growth of MCF-7 cells
